Assay results from patent publication US20110251379A1, “COMPOUNDS USEFUL FOR TREATING NEURODEGENERATIVE DISORDERS” (Satori Pharmaceuticals, Inc., priority 2010, published 2011).
Like-named read-outs stand apart in the source and are kept apart here.

Columns and labels:
Format in all cases: cell-based
Aβ-40 = test: MSD Human (6E10) Ab 3-PLEX elisa, conditioned media of 2B7 cells: Aβ-40; details: for IC50: Aβ-40 (superscript b)
How it was run: (§1)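 2B7 cells, confluent; cpd 5 h, 37° C, 1% DMSO. Media 1:1 blocking buffer, MSD electrochemiluminescence sandwich, o/n 4 degrees C or 2 h RT.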

Aβ-42 = test: MSD Human (6E10) Ab 3-PLEX elisa, conditioned media of 2B7 cells: Aβ-42; details: for IC50: Aβ-42 (superscript c)
How it was run: as §1

Aβ-38 = test: MSD Human (6E10) Ab 3-PLEX elisa, conditioned media of 2B7 cells: Aβ-38; details: for % Inh. (range): Aβ-38, 20 μM; for IC50: Aβ-38 (superscript a)
How it was run: as §1

[1] = Homo sapiens, read-out: 50% reduction value
[2] = Homo sapiens, read-out: IC50 range

In the case of `CC(=O)OCC1CC(C)C2C(O1)C(O)C1(C)C3CCC4C(C)(C)C(OC5OCC(O)C(O)C5O)CCC45CC35CCC21C` (stereo not shown) [drawing 1206], the “% Inh. (range)” value (Aβ-40; Aβ-40, 20 μM) is reported as “E^a (20 μM) E^b (20 μM) E^c (20 μM) (% inhibition of 25-75%)”, the “% Inh. (range)” value (Aβ-42; Aβ-42, 20 μM) is reported as “E^a (20 μM) E^b (20 μM) E^c (20 μM) (% inhibition of 25-75%)” and the “% Inh. (range)” value (Aβ-38) is reported as “E^a (20 μM) E^b (20 μM) E^c (20 μM) (% inhibition of 25-75%)”.
In the case of `CC(=O)N(Cc1ccccc1)CC1CC(C)C2C(O1)C(O)C1(C)C3CCC4C(C)(C)C(O)CCC45CC35CCC21C` (stereo not shown) [drawing 1207], the IC50 (Aβ-40; read-out: 50% reduction value) is reported as 1000 to 10000 nM, the IC50 (Aβ-42; read-out: 50% reduction value) is reported as 1000 to 10000 nM and the IC50 (Aβ-42; read-out: IC50 range) is reported as < 1000 nM. For the same molecule, the IC50 (Aβ-38; read-out: 50% reduction value) was 1000 to 10000 nM.
With `CC1CC(C(=O)O)OC2C1C1(C)CCC34CC35CCC(O)C(C)(C)C5CCC4C1(C)C2O` (stereo not shown) [drawing 1208] the “% Inh. (range)” value (Aβ-40; Aβ-40, 20 μM) was “F^a (20 μM) F^b (20 μM) F^c (20 μM) (% inhibition of <25%)”, the “% Inh. (range)” value (Aβ-42; Aβ-42, 20 μM) was “F^a (20 μM) F^b (20 μM) F^c (20 μM) (% inhibition of <25%)” and the “% Inh. (range)” value (Aβ-38) was “F^a (20 μM) F^b (20 μM) F^c (20 μM) (% inhibition of <25%)”.
In the case of `CCC(=O)OC(C1CC(C)C2C(O1)C(O)C1(C)C3CCC4C(C)(C)C(OC5CN(C6COC6)CCO5)CCC45CC35CCC21C)C(C)(C)O` (stereo not shown) [drawing 1209], the IC50 (Aβ-40; read-out: 50% reduction value) is reported as 1000 to 10000 nM, the IC50 (Aβ-40; read-out: IC50 range) is reported as 1000 to 10000 nM and the IC50 (Aβ-42; read-out: 50% reduction value) is reported as < 1000 nM. The IC50 (Aβ-38; read-out: 50% reduction value) was < 1000 nM and the IC50 (Aβ-38; read-out: IC50 range) was < 1000 nM.
`CC(=O)OCC1CC(C)C2C(O1)C(O)C1(C)C3CCC4C(C)(C)C(OC(=O)c5cccnc5)CCC45CC35CCC21C` (stereo not shown) [drawing 1210] was tested, and the IC50 (Aβ-40; read-out: 50% reduction value) was 1000 to 10000 nM, the IC50 (Aβ-40; read-out: IC50 range) was > 10000 nM and the IC50 (Aβ-42; read-out: 50% reduction value) was 1000 to 10000 nM. The IC50 (Aβ-42; read-out: IC50 range) was 1000 to 10000 nM and the IC50 (Aβ-38; read-out: 50% reduction value) was 1000 to 10000 nM.
With `CC(=O)N(Cc1cc(F)cc(F)c1)CC1CC(C)C2C(O1)C(O)C1(C)C3CCC4C(C)(C)C(O)CCC45CC35CCC21C` (stereo not shown) [drawing 1211] the IC50 (Aβ-40; read-out: 50% reduction value) was > 10000 nM, the IC50 (Aβ-42; read-out: 50% reduction value) was 1000 to 10000 nM and the IC50 (Aβ-38; read-out: 50% reduction value) was 1000 to 10000 nM.
For `CC(=O)N(Cc1ccccn1)CC1CC(C)C2C(O1)C(O)C1(C)C3CCC4C(C)(C)C(O)CCC45CC35CCC21C` (stereo not shown) [drawing 1212], the IC50 (Aβ-40; read-out: 50% reduction value) was > 10000 nM, the IC50 (Aβ-42; read-out: 50% reduction value) was > 10000 nM and the IC50 (Aβ-38; read-out: 50% reduction value) was > 10000 nM.
In the case of `CC(=O)N(CC1CC(C)C2C(O1)C(O)C1(C)C3CCC4C(C)(C)C(O)CCC45CC35CCC21C)C(C)C` (stereo not shown) [drawing 1213], the “% Inh. (range)” value (Aβ-40; Aβ-40, 100 μM) is reported as “E^b (100 μM) E^c (100 μM) (% inhibition of 25-75%)”, the “% Inh. (range)” value (Aβ-42; Aβ-42, 100 μM) is reported as “E^b (100 μM) E^c (100 μM) (% inhibition of 25-75%)” and the IC50 (Aβ-38; read-out: 50% reduction value) is reported as 1000 to 10000 nM.
`CC1CC(C(OC(=O)C2CC2)C(C)(C)O)OC2C1C1(C)CCC34CC35CCC(O)C(C)(C)C5CCC4C1(C)C2O` (stereo not shown) [drawing 1214] was tested, and the IC50 (Aβ-40; read-out: 50% reduction value) was 1000 to 10000 nM, the IC50 (Aβ-42; read-out: 50% reduction value) was < 1000 nM and the IC50 (Aβ-38; read-out: 50% reduction value) was 1000 to 10000 nM.
In the case of `CC(=O)N(Cc1cc(F)cc(F)c1)CC1CC(C)C2C(O1)C(O)C1(C)C3CCC4C(C)(C)C(OC(=O)C5CNC5)CCC45CC35CCC21C` (stereo not shown) [drawing 1215], the IC50 (Aβ-40; read-out: 50% reduction value) is reported as 1000 to 10000 nM, the IC50 (Aβ-40; read-out: IC50 range) is reported as 1000 to 10000 nM and the IC50 (Aβ-42; read-out: 50% reduction value) is reported as 1000 to 10000 nM. It also gave an IC50 (Aβ-42; read-out: IC50 range) of 1000 to 10000 nM, an IC50 (Aβ-38; read-out: 50% reduction value) of 1000 to 10000 nM and an IC50 (Aβ-38; read-out: IC50 range) of 1000 to 10000 nM.
With `CC1CC(C(OC(=O)C2CCC2)C(C)(C)O)OC2C1C1(C)CCC34CC35CCC(O)C(C)(C)C5CCC4C1(C)C2O` (stereo not shown) [drawing 1216] the IC50 (Aβ-40; read-out: 50% reduction value) was 1000 to 10000 nM, the IC50 (Aβ-42; read-out: 50% reduction value) was < 1000 nM and the IC50 (Aβ-38; read-out: 50% reduction value) was 1000 to 10000 nM.
For `CC1CC(C(OC(=O)N(C)C)C(C)(C)O)OC2C1C1(C)CCC34CC35CCC(O)C(C)(C)C5CCC4C1(C)C2O` (stereo not shown) [drawing 1217], the “% Inh. (range)” value (Aβ-40; Aβ-40, 20 μM) was “E^b (20 μM) E^c (20 μM) (% inhibition of 25-75%)”, the “% Inh. (range)” value (Aβ-42; Aβ-42, 20 μM) was “E^b (20 μM) E^c (20 μM) (% inhibition of 25-75%)” and the IC50 (Aβ-38; read-out: 50% reduction value) was 1000 to 10000 nM.
`CC1CC(C(=O)C(C)(C)O)OC2C1C1(C)CCC34CC35CCC(O)C(C)(C)C5CCC4C1(C)C2O` (stereo not shown) [drawing 1218] was tested, and the “% Inh. (range)” value (Aβ-40; Aβ-40, 20 μM) was “E (% inhibition of 25-75%)”, the “% Inh. (range)” value (Aβ-42; Aβ-42, 20 μM) was “F (% inhibition of <25%)” and the IC50 (Aβ-38; read-out: 50% reduction value) was 1000 to 10000 nM.
With `CC1CC(C(OC(=O)C2CCC2)C(C)(C)O)OC2C1C1(C)CCC34CC35CCC(OC3CN(C6COC6)CCO3)C(C)(C)C5CCC4C1(C)C2O` (stereo not shown) [drawing 1219] the IC50 (Aβ-40; read-out: 50% reduction value) was < 1000 nM, the IC50 (Aβ-42; read-out: 50% reduction value) was < 1000 nM and the IC50 (Aβ-38; read-out: 50% reduction value) was < 1000 nM. For the same molecule, the IC50 (Aβ-38; read-out: IC50 range) was < 1000 nM.
For `CC(C)C(=O)OC(C1CC(C)C2C(O1)C(O)C1(C)C3CCC4C(C)(C)C(OC5CN(C6COC6)CCO5)CCC45CC35CCC21C)C(C)(C)O` (stereo not shown) [drawing 1220], the IC50 (Aβ-40; read-out: 50% reduction value) was 1000 to 10000 nM, the IC50 (Aβ-42; read-out: 50% reduction value) was < 1000 nM and the IC50 (Aβ-38; read-out: 50% reduction value) was < 1000 nM. For the same molecule, the IC50 (Aβ-38; read-out: IC50 range) was < 1000 nM.
With `CC(=O)O[C@@H]([C@H]1C[C@@H](C)C2C(O1)C(=O)[C@@]1(C)[C@@H]3CC[C@H]4C(C)(C)[C@@H](O[C@@H]5OC[C@@H](O)[C@H](O)[C@H]5O)CC[C@@]45C[C@@]35CC[C@]21C)C(C)(C)O` (stereo partly shown) [drawing 1230] the IC50 (Aβ-40; [1]) was 1000 to 10000 nM, the IC50 (Aβ-42; [1]) was > 10000 nM and the IC50 (Aβ-42; [2]) was < 1000 nM. The IC50 (Aβ-38; [1]) was 1000 to 10000 nM and the IC50 (Aβ-38; [2]) was 1000 to 10000 nM.
For `CC(=O)O[C@@H]([C@H]1C[C@@H](C)C2C(O1)[C@H](O)[C@@]1(C)[C@@H]3CC[C@H]4C(C)(C)[C@@H](O)CC[C@@]45C[C@@]35CC[C@]21C)C(C)(C)O` (stereo partly shown) [drawing 1231], the inhibition at 20 µM (Aβ-40; Homo sapiens, Aβ-40, 20 μM) was 25 to 75%, the IC50 (Aβ-42; [1]) was 1000 to 10000 nM and the IC50 (Aβ-38; [1]) was 1000 to 10000 nM.
`CCO[C@@H](C1C[C@@H](C)[C@H]2C(O1)[C@H](O)[C@@]1(C)C3CC[C@H]4C(C)(C)C(OC5CN(Cc6ccccc6)CCO5)CC[C@@]45C[C@@]35CC[C@]21C)C(C)(C)O` (stereo partly shown) [drawing 1282] was tested, and the IC50 (Aβ-40; [1]) was 1000 to 10000 nM, the IC50 (Aβ-42; [1]) was 1000 to 10000 nM and the IC50 (Aβ-42; [2]) was 1000 to 10000 nM. The IC50 (Aβ-38; [1]) was 1000 to 10000 nM and the IC50 (Aβ-38; [2]) was 1000 to 10000 nM.
In the case of `CCO[C@@H](C1C[C@@H](C)[C@H]2C(O1)[C@H](O)[C@@]1(C)C3CC[C@H]4C(C)(C)C(OC(=O)NC5CCNC5=O)CC[C@@]45C[C@@]35CC[C@]21C)C(C)(C)O` (stereo partly shown) [drawing 1289], the IC50 (Aβ-40; read-out: IC50 range) is reported as 1000 to 10000 nM, the IC50 (Aβ-40; [1]) is reported as 1000 to 10000 nM and the IC50 (Aβ-42; [1]) is reported as < 1000 nM. For the same molecule, the IC50 (Aβ-42; [2]) was < 1000 nM and the IC50 (Aβ-38; [1]) was < 1000 nM.
For `CCO[C@@H](C1C[C@@H](C)[C@H]2C(O1)[C@H](O)[C@@]1(C)C3CC[C@H]4C(C)(C)C(OC(=O)NC5CCNC5=O)CC[C@@]45C[C@@]35CC[C@]21C)C(C)(C)O` (stereo partly shown) [drawing 1290], the IC50 (Aβ-40; read-out: 50% reduction value) was 1000 to 10000 nM, the IC50 (Aβ-40; read-out: IC50 range) was > 10000 nM and the IC50 (Aβ-42; read-out: 50% reduction value) was < 1000 nM. The IC50 (Aβ-42; read-out: IC50 range) was < 1000 nM, the IC50 (Aβ-38; read-out: 50% reduction value) was < 1000 nM and the IC50 (Aβ-38; [2]) was < 1000 nM.
`CCO[C@@H](C1C[C@@H](C)[C@H]2C(O1)[C@H](O)[C@@]1(C)C3CC[C@H]4C(C)(C)C(OC5CN(Cc6ccccc6)CCO5)CC[C@@]45C[C@@]35CC[C@]21C)C(C)(C)O` (stereo partly shown) [drawing 1307] was tested, and the IC50 (Aβ-40; read-out: 50% reduction value) was 1000 to 10000 nM, the IC50 (Aβ-42; read-out: IC50 range) was 1000 to 10000 nM and the IC50 (Aβ-38; read-out: IC50 range) was 1000 to 10000 nM.
